Assay [1] deals with MRTF-A. Kind of assay: MRTF-A subcellular localisation by immunofluorescence. The following applies: for effect of inhibitor on TPA block of serum-induced MRTF-A nuclear accumulation / inhibition of TPA-induced MRTF-A nuclear accumulation: U0126 10 μM, Gö6976 2 μM, Gö6983 6 μM; for effect of inhibitor on TPA block of serum-induced MRTF-A nuclear accumulation: TPA then 15% FCS; for inhibition of TPA-induced MRTF-A nuclear accumulation: pretreated 20 min. Type of assay: cell-based, mouse. As to the method: (§1) NIH3T3 cells were cultured in DMEM, 10% FCS.
(§2) For immunofluorescence ([Vartiainen et al., 2007]), NIH3T3 cells were transfected in six-well plates (150000 /well), with 50 ng pEF-Flag-MRTF-PK derivatives, 100 ng pEF-MRTF-A derivatives, 50 ng MEK-R4F, 100 ng RafER, using Lipofectamine 2000 (Invitrogen).
(§3) Data was processed using GraphPad Prism version 5.03.

Assay [2] has as its system MRTF-A. Nature of the assay: Site-specific MRTF-A phosphorylation (phosphospecific antibody immunoblot). Type of assay: cell-based, mouse. The following applies: for phosphorylation at analysed phospho-sites: 2 μM CD or 100 ng/ml TPA, sites analysed with phosphospecific antibodies; for S33 phosphorylation / S98 phosphorylation: 100 ng/ml TPA, U0126 10 μM. As to the method: as §1, §3
On the technique in general: Immunoblotting shows a protein as a band on a membrane.

Assay [3] concerns MRTF-A. Kind of assay: MRTF-A phosphorylation (SDS-PAGE mobility, immunoblot). The conditions noted are these: for inhibition of MRTF-A phosphorylation by PKC inhibitor: inhibitor pretreatment 20 min, 100 ng/ml TPA 30 min. The assay is classed as cell-based, mouse. As to the method:
as §1, §3

The test system of assay [4] is F-actin assembly in NIH3T3 cells. Kind of assay: F- and G-actin quantitation (F:G ratio). Type of assay: cell-based, mouse. The conditions noted are these: n = 3; for effect of inhibitor on TPA inhibition of F-actin assembly: inhibitor 20 min, TPA 20 min, 15% FCS 20 min. As to the method:
Cells were processed as described ([Vartiainen et al., 2007]) with modifications. G- and F-actin were detected using 0.3 μM DN'ase I-Alexa Fluor 488 conjugate and 5 U/ml Alexa Fluor 647-phalloidin (Molecular Probes). After three washes in PBS, cells were analysed using the Cellomics ArrayScan. For each experiment, six technical replicates were performed. Statistical significance of alterations in F:G ratio was estimated by one-way ANOVA (Dunnett's multiple comparison test).

In the next assay the test system is ERK. Nature of the assay: ERK activation immunoblot. The assay is classed as cell-based. The conditions noted are these: inhibitor pretreatment 20 min, 100 ng/ml TPA 30 min. As to the method:
as §1, §3

Another assay concerns PKC isoforms. The conditions noted are these: 2 μM Gö6976; ref Martiny-Baron et al., 1993; cited from earlier work. As to the method: as §1
The subject of assay [5] is MRTF-A. The conditions noted are these: LatB; ref Vartiainen et al., 2007; cited from earlier work.
Assay [6] has as its system RevΔ MRTF-A GFP derivatives (Crm1-dependent NES). Nature of the assay: RevΔGFP nuclear export assay. The assay is classed as cell-based. The following applies: 50 nM LMB.
A further assay relates to MRTF-SRF target genes. The following applies: 100 ng/ml TPA, 0.25-3 hr; n = 2.
A further assay concerns MRTF-A(2–204)-PK. Kind of assay: MRTF-A(2–204)-PK subcellular localisation by immunofluorescence. The following applies: TPA. The assay is classed as cell-based, mouse. As to the method:
as §1, §2, §3

The next assay deals with MLC2. The following applies: MLC2 S19; 100 ng/ml TPA, then 15% FCS.
In another assay the test system is RhoA. The conditions noted are these: 100 ng/ml TPA, then 15% FCS. As to the method: RhoGTP pull-downs used Rho activation assay (Millipore) with modifications. Cells were grown in 15 cm dishes, washed twice in ice-cold TBS, scraped in 400 μl 2x lysis buffer with 16% glycerol, made to 800 μl with water, and clarified. 20 μl was retained as input, and the remainder incubated with 20 μl GST-Rhotekin for 45 min at 4°C. After three 1 ml washes with Lysis buffer, proteins were eluted with SDS loading buffer and Rho recovery assessed by immunoblotting.

In another assay the test system is MEK. The following applies: 10 μM U0126; ref Bain et al., 2007; cited from earlier work. As to the method:
as §1

The target of another assay is T1, G-actin (Oryctolagus cuniculus, UniProt P68135).
T1 construct: Actin was prepared as described ([Mouilleron et al., 2008]); from tissue; host or cells: rabbit skeletal muscle (own knowledge of the cited method)
Kind of assay: Size exclusion chromatography of G-actin / Spacer1-RPEL2 peptide complexes. The assay is classed as binding. The following applies: SEC, Spacer1-RPEL2 peptides; for apparent molecular mass of G-actin complex: Superdex 200, 20 mM Tris (pH 8), 100 mM NaCl; for apparent stoichiometry of G-actin binding: Superdex 200, pH 8. As to the method: Peptides were synthesised by the London Research Institute (LRI) peptide synthesis platform. MRTF-A(94–142), FAM-MRTF-A(62–104) and FAM-MRTF-A(67–98) derivatives are as in Figure 4—figure supplement 2A. Phosphorylated 10–12 mer peptides for immunizations were centred on the phosphoacceptor site (see Table 1). Actin was prepared as described ([Mouilleron et al., 2008]).
Preparation of LatB-actin and fluorescence polarisation anisotropy assay were described ([Guettler et al., 2008]). Size exclusion chromatography was on Superdex 200 column equilibrated in 20 mM Tris (pH 8), 100 mM NaCl, 3 mM MgCl2, 0.2 mM EGTA, 0.3 mM TCEP [(tris(2-carboxyethyl)phosphine)], 5% (v/v) glycerol, calibrated with globular proteins of known molecular weight.
For orientation: In gel filtration, larger molecules generally elute earlier.

Setting [7] is: NIH3T3 cells, 100 ng/ml TPA, 2 μM CD or 50 nM LMB.
The mark [8] stands for this setting: 100 ng/ml TPA 20 min, then 15% FCS 20 min.

Like-named read-outs stand apart in the source and are kept apart here. Ends that are not written are not given here.

In the case of `CC/C(=C(\c1ccc(O)cc1)c1ccc(OCCN(C)C)cc1)c1ccccc1` [4-hydroxytamoxifen], the “block of serum-induced nuclear accumulation by pre-treatment” value in the assay on MRTF-A [1] (Raf-ER cells, 1 μM 4OHT 20 min, then 15% FCS 20 min) is recorded as “Only pre-treatment with TPA significantly blocked serum-induced nuclear accumulation”.
Regarding `C=C1[C@@H](C)[C@H]2[C@H](Cc3ccccc3)NC(=O)[C@]23[C@H](OC(C)=O)/C=C/[C@@](C)(O)C(=O)[C@@H](C)C/C=C/[C@H]3[C@@H]1O` [CD, cytochalasin D], in the assay on MRTF-A [2], the “phosphorylation at analysed phospho-sites” value was “induced a gradual accumulation at all analysed sites”. Further, the “phosphorylation of MRTF-A/MC fusion protein” value with MRTF-A [3] (2 μM CD) is on record as “exhibited CD-induced phosphorylation similar to that seen in MRTF-A”. For the same compound, the “ERK dependence of CD-induced MRTF-A phosphorylation” value in the assay on MRTF-A [3] (2 μM CD with and without 10 μM U0126) is listed as “this occurred independently of ERK”. For the same compound, the “phosphorylation of MRTF-A B2A (NLS mutant)” value in the assay on MRTF-A [3] (15% FCS or 2 μM CD, 10 μM U0126) is “could be induced by serum, but not CD”. The MRTF-A phosphorylation result with MRTF-A [3] (setting [7]) is “also induced MRTF-A phosphorylation”.
As for `Cn1c2ccccc2c2c3c(c4c5ccccc5n(CCC#N)c4c21)CNC3=O` [Gö6976], in assay [4], the “effect of inhibitor on TPA inhibition of F-actin assembly” value is given as “not by U0126 or Gö6976”. For the same compound, in the assay with ERK, the “inhibition of TPA-induced ERK activation” value was “only the latter completely inhibited ERK activation”. The PKC isoform block result with PKC isoforms is “insufficient to block non-novel PKC isoforms”. In the assay with MRTF-A [1], the “effect of inhibitor on TPA block of serum-induced MRTF-A nuclear accumulation” value was “insensitive to U0126 and Gö6976”. In the assay with MRTF-A [1] (100 ng/ml TPA), the “inhibition of TPA-induced MRTF-A nuclear accumulation” value is “sensitive to both the conventional-PKC inhibitor Gö6976 and the pan-PKC inhibitor Gö6983”. In addition, the “inhibition of MRTF-A phosphorylation by PKC inhibitor” value in the assay on MRTF-A [3] is “only the latter completely inhibited ERK activation and MRTF-A phosphorylation”.
`COc1ccc2c(c1)c(C1=C(c3c[nH]c4ccccc34)C(=O)NC1=O)cn2CCCN(C)C` [Gö6983]: in assay [4], the “effect of inhibitor on TPA inhibition of F-actin assembly” value is on record as “relieved by Gö6983”. The “inhibition of TPA-induced ERK activation” value in the assay with ERK is given as “completely inhibited ERK activation”. In the assay on MRTF-A [1], the “effect of inhibitor on TPA block of serum-induced MRTF-A nuclear accumulation” value is “relieved by Gö6983”. Besides, in the assay with MRTF-A [1] (100 ng/ml TPA), the “inhibition of TPA-induced MRTF-A nuclear accumulation” value was “sensitive to both the conventional-PKC inhibitor Gö6976 and the pan-PKC inhibitor Gö6983”. For the same compound, the “inhibition of MRTF-A phosphorylation by PKC inhibitor” value in the assay with MRTF-A [3] is “completely inhibited ERK activation and MRTF-A phosphorylation”.
Turning to `C/C1=C/C(=O)O[C@@H]2C[C@@H](CC[C@H](C)/C=C\CC1)O[C@@](O)([C@@H]1CSC(=O)N1)C2` [LatB, Latrunculin B], in the assay with MRTF-A [5], the “cytoplasmic localisation of MRTF-A” value is “restore cytoplasmic localisation of MRTF-A”. In addition, the “return of serum-induced MRTF-A phosphorylation” value in the assay on MRTF-A [3] (NIH3T3, 15% FCS 30 min, then 1 μM LatB) is reported as “rapid return of MRTF-A phosphorylation to prestimulation levels”.
Consider `CCC(=C/[C@H](C)C/C=C/C(C)=C/[C@@H](C)C(=O)[C@@H](C)[C@H](O)[C@@H](C)C/C(C)=C/C(=O)O)/C=C/[C@@H]1OC(=O)C=C[C@@H]1C` [Leptomycin B], for which the “nuclear localisation of RevΔMRTF-A derivatives” value in [6] is reported as “Nuclear localisation could be restored by serum stimulation, or by treatment with Leptomycin B (LMB)”; in assay [6] (listed as LMB) it was “both proteins accumulated in the nucleus upon LMB treatment”. The MRTF-A phosphorylation entry in the assay on MRTF-A [3] (setting [7]) is “did not induce phosphorylation unless the cells were simultaneously stimulated with CD or FCS”.
In the case of `CCCCCCCCCCCCCC(=O)O[C@@H]1[C@@H](C)[C@@]2(O)[C@@H](C=C(CO)C[C@]3(O)C(=O)C(C)=C[C@@H]23)[C@H]2C(C)(C)[C@]12OC(C)=O` [TPA], the “serum-induced F-actin assembly” value in [4] (setting [8]) is on record as “inhibited serum-induced F-actin assembly”. Moreover, the “induction of transcription of MRTF-SRF target genes” value with MRTF-SRF target genes is recorded as “induced transcription of MRTF-SRF target genes in an ERK-dependent manner”. Also, the “nuclear accumulation of MRTF-A(2–204)-PK” value in the assay with MRTF-A(2–204)-PK is on record as “promoted nuclear accumulation of MRTF-A(2–204)-PK”. Further, in the assay on MRTF-A [2], the S33 phosphorylation result is given as “could be slightly increased upon serum or TPA stimulation”, the S98 phosphorylation entry is “by TPA in a U0126-sensitive fashion” and the “phosphorylation at analysed phospho-sites” value was “induced a gradual accumulation at all analysed sites”. Also, in the assay on MLC2, the “serum-induced phosphorylation of MLC2” value was “inhibited serum-induced accumulation of Rho.GTP, and phosphorylation of MLC2, independently of ERK but in a PKC-dependent manner”. Also, the “inhibition of serum-induced MRTF-A nuclear accumulation by TPA pretreatment” value with MRTF-A [1] (setting [8]) is reported as “effectively blocked MRTF-A nuclear accumulation upon subsequent serum stimulation”. Moreover, the “proportion of cells with predominantly nuclear MRTF-A” value with MRTF-A [1] (100 ng/ml TPA, 20 min) is reported as “substantially increased the proportion of cells with predominantly nuclear MRTF-A”. For the same compound, the MRTF-A phosphorylation result with MRTF-A [3] is recorded as “also induced MRTF-A phosphorylation”. For the same compound, the “serum-induced accumulation of Rho.GTP” value with RhoA is “inhibited serum-induced accumulation of Rho.GTP”.
In the case of `N#CC(=C(/N)Sc1ccccc1N)/C(C#N)=C(/N)Sc1ccccc1N` [U0126], in assay [4], the “effect of inhibitor on TPA inhibition of F-actin assembly” value is recorded as “not by U0126 or Gö6976”. In addition, in the assay with MRTF-A [2], the S33 phosphorylation result was “Induced S33 phosphorylation was U0126-sensitive” and the S98 phosphorylation entry is recorded as “U0126-sensitive”. Also, in the assay with MEK, the “MEK inhibition and selectivity” value is recorded as “sufficient to inhibit MEK activation without substantial effects on other kinases”. Further, the “effect of inhibitor on TPA block of serum-induced MRTF-A nuclear accumulation” value in the assay with MRTF-A [1] is “insensitive to U0126 and Gö6976”.
As to “S1-R2 WT: Spacer1-RPEL2 peptide (LKLKRARLADDLNEKIAQRPGPMELVEKNILPVESSLKEAIIVGQVNYP; UniProt Q8K4J6 94-142, looked up, fragment)”, in the assay with G-actin, the “apparent molecular mass of G-actin complex” value is 70.9 kDa and the “apparent stoichiometry of G-actin binding” value is on record as 1.5 actins.
For “S1-R2 pS98: Spacer1-RPEL2 peptide phosphorylated at S98 (LKLKRARLADDLNEKIAQRPGPMELVEKNILPVESSLKEAIIVGQVNYP; also: phosphorylated at S98, position not located in chain; UniProt Q8K4J6 94-142, looked up, fragment)”, in that order: 64.1 kDa and 1.4 actins.

Source of the values: paper PMC4963197, “Phosphorylation acts positively and negatively to regulate MRTF-A subcellular localisation and activity” (eLife, 2016).
